# Measured values as given in PubChem BioAssay AID2060906 (Molecular Pharmacology Branch, DTP, NCI, 2025).
# System: 485176-168-R4-J1-PDC complex spheroid growth
# Experiment: Anticancer human tumor 485176-168-R4-J1-PDC patient-derived pancreatic adenocarcinoma cell line growth inhibition [RAS]
# Conditions: for IC50: curve of first compound; for viability, T/C: stronger effect = lower value
# Outline: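 Multi-cell-type spheroids: tumor cells plus HUVEC endothelial cells and mesenchymal stem cells. RAS-pathway inhibitors were combined with targeted agents, each dosed in half-log steps down from clinical Cmax, or from 10 microM when Cmax was unknown.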
# [1] = second compound 0.0316 µM, first compound 0.0316 µM
# [2] = second compound 0.0316 µM, first compound 0.1 µM
# [3] = second compound 0.0316 µM, first compound 0.316 µM
# [4] = second compound 0.0316 µM, first compound 1 µM
# [5] = second compound 0.0316 µM, first compound 3.16 µM
# [6] = second compound 0.0316 µM, first compound 10 µM
# [7] = second compound 0.1 µM, first compound 0.0316 µM
# [8] = second compound 0.1 µM, first compound 0.1 µM
# [9] = second compound 0.1 µM, first compound 0.316 µM
# [10] = second compound 0.1 µM, first compound 1 µM
# [11] = second compound 0.1 µM, first compound 3.16 µM
# [12] = second compound 0.1 µM, first compound 10 µM
# [13] = second compound 0.316 µM, first compound 0.0316 µM
# [14] = second compound 0.316 µM, first compound 0.1 µM
# [15] = second compound 0.316 µM, first compound 0.316 µM
# [16] = second compound 0.316 µM, first compound 1 µM
# [17] = second compound 0.316 µM, first compound 3.16 µM
# [18] = second compound 0.316 µM, first compound 10 µM
# [19] = second compound 1 µM, first compound 0.0316 µM
# [20] = second compound 1 µM, first compound 0.1 µM
# [21] = second compound 1 µM, first compound 0.316 µM
# [22] = second compound 1 µM, first compound 1 µM
# [23] = second compound 1 µM, first compound 3.16 µM
# [24] = second compound 1 µM, first compound 10 µM
# [25] = second compound 3.16 µM, first compound 0.0316 µM
# [26] = second compound 3.16 µM, first compound 0.1 µM
# [27] = second compound 3.16 µM, first compound 0.316 µM
# [28] = second compound 3.16 µM, first compound 1 µM
# [29] = second compound 3.16 µM, first compound 3.16 µM
# [30] = second compound 3.16 µM, first compound 10 µM
# [31] = second compound 10 µM, first compound 0.0316 µM
# [32] = second compound 10 µM, first compound 0.1 µM
# [33] = second compound 10 µM, first compound 0.316 µM
# [34] = second compound 10 µM, first compound 1 µM
# [35] = second compound 10 µM, first compound 3.16 µM
# [36] = second compound 10 µM, first compound 10 µM
# 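Note: spheroids exposed to compounds for seven days before readout.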
# 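Throughout, for viability, T/C: luminescence viability expressed relative to DMSO vehicle wells set as 100%.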
smiles,measurement,setting,value
Cc1nc(N2CCC3(CC2)COC(C)C3N)c(CO)nc1Sc1ccnc(N)c1Cl (stereo unspecified) + C#Cc1c(F)ccc2cc(O)cc(-c3ncc4c(N5CC6CCC(C5)N6)nc(OCC56CCCN5CC(F)C6)nc4c3F)c12,IC50,second compound 0.0316 µM,> 10 µM
same,IC50,second compound 0.1 µM,> 10 µM
same,IC50,second compound 0.316 µM,> 10 µM
same,IC50,second compound 1 µM,> 10 µM
same,IC50,second compound 3.16 µM,> 10 µM
same,IC50,second compound 10 µM,> 10 µM
same,"viability, T/C",[1],111%
same,"viability, T/C",[2],89.3%
same,"viability, T/C",[3],79.5%
same,"viability, T/C",[4],82.5%
same,"viability, T/C",[5],88.5%
same,"viability, T/C",[6],73.4%
same,"viability, T/C",[7],91.6%
same,"viability, T/C",[8],99.6%
same,"viability, T/C",[9],83.4%
same,"viability, T/C",[10],84.4%
same,"viability, T/C",[11],85.6%
same,"viability, T/C",[12],83%
same,"viability, T/C",[13],83%
same,"viability, T/C",[14],85.4%
same,"viability, T/C",[15],86.7%
same,"viability, T/C",[16],70.6%
same,"viability, T/C",[17],81.8%
same,"viability, T/C",[18],77.3%
same,"viability, T/C",[19],85.5%
same,"viability, T/C",[20],102%
same,"viability, T/C",[21],71.4%
same,"viability, T/C",[22],75.3%
same,"viability, T/C",[23],77.7%
same,"viability, T/C",[24],70.8%
same,"viability, T/C",[25],92.6%
same,"viability, T/C",[26],98.1%
same,"viability, T/C",[27],96.2%
same,"viability, T/C",[28],75.9%
same,"viability, T/C",[29],86.5%
same,"viability, T/C",[30],64.1%
same,"viability, T/C",[31],80.4%
same,"viability, T/C",[32],87.4%
same,"viability, T/C",[33],87%
same,"viability, T/C",[34],82.1%
same,"viability, T/C",[35],80%
same,"viability, T/C",[36],86.6%
NC1c2ccccc2OC12CCN(c1cnc3c(N4CCCc5ncccc54)n[nH]c3n1)CC2 (stereo unspecified) + C#Cc1c(F)ccc2cc(O)cc(-c3ncc4c(N5CC6CCC(C5)N6)nc(OCC56CCCN5CC(F)C6)nc4c3F)c12,IC50,second compound 0.0316 µM,> 10 µM
same,IC50,second compound 0.1 µM,> 10 µM
same,IC50,second compound 0.316 µM,> 10 µM
same,IC50,second compound 1 µM,> 10 µM
same,IC50,second compound 3.16 µM,> 10 µM
same,IC50,second compound 10 µM,> 10 µM
same,"viability, T/C",[1],77%
same,"viability, T/C",[2],79.1%
same,"viability, T/C",[3],78.5%
same,"viability, T/C",[4],77.6%
same,"viability, T/C",[5],75.3%
same,"viability, T/C",[6],62.4%
same,"viability, T/C",[7],83%
same,"viability, T/C",[8],82.9%
same,"viability, T/C",[9],78.7%
same,"viability, T/C",[10],76.2%
same,"viability, T/C",[11],90.1%
same,"viability, T/C",[12],62.5%
same,"viability, T/C",[13],78.4%
same,"viability, T/C",[14],82.8%
same,"viability, T/C",[15],73.9%
same,"viability, T/C",[16],72.6%
same,"viability, T/C",[17],79.3%
same,"viability, T/C",[18],58.8%
same,"viability, T/C",[19],78.6%
same,"viability, T/C",[20],74%
same,"viability, T/C",[21],85.5%
same,"viability, T/C",[22],80.6%
same,"viability, T/C",[23],87.8%
same,"viability, T/C",[24],70%
same,"viability, T/C",[25],79.8%
same,"viability, T/C",[26],68.9%
same,"viability, T/C",[27],64.5%
same,"viability, T/C",[28],82.8%
same,"viability, T/C",[29],80.5%
same,"viability, T/C",[30],61.3%
same,"viability, T/C",[31],91.4%
same,"viability, T/C",[32],79.2%
same,"viability, T/C",[33],68.8%
same,"viability, T/C",[34],67.2%
same,"viability, T/C",[35],91.1%
same,"viability, T/C",[36],64.5%
Nc1ccn(C2OC(CO)C(O)C2(F)F)c(=O)n1 (stereo unspecified) + C#Cc1c(F)ccc2cc(O)cc(-c3ncc4c(N5CC6CCC(C5)N6)nc(OCC56CCCN5CC(F)C6)nc4c3F)c12,IC50,second compound 0.0316 µM,0.0173 µM
same,IC50,second compound 0.1 µM,0.0164 µM
same,IC50,second compound 0.316 µM,0.0142 µM
same,IC50,second compound 1 µM,0.0182 µM
same,IC50,second compound 3.16 µM,0.0153 µM
same,IC50,second compound 10 µM,0.0153 µM
same,"viability, T/C","second compound 0.0316 µM, first compound 0.00316 µM",84%
same,"viability, T/C","second compound 0.0316 µM, first compound 0.01 µM",80.9%
same,"viability, T/C",[1],15.7%
same,"viability, T/C",[2],8.52%
same,"viability, T/C",[3],8.6%
same,"viability, T/C",[4],8.88%
same,"viability, T/C","second compound 0.1 µM, first compound 0.00316 µM",87.7%
same,"viability, T/C","second compound 0.1 µM, first compound 0.01 µM",76.1%
same,"viability, T/C",[7],15.6%
same,"viability, T/C",[8],8.78%
same,"viability, T/C",[9],9.24%
same,"viability, T/C",[10],9.6%
same,"viability, T/C","second compound 0.316 µM, first compound 0.00316 µM",80.7%
same,"viability, T/C","second compound 0.316 µM, first compound 0.01 µM",66.1%
same,"viability, T/C",[13],13.2%
same,"viability, T/C",[14],7.37%
same,"viability, T/C",[15],11.3%
same,"viability, T/C",[16],10.4%
same,"viability, T/C","second compound 1 µM, first compound 0.00316 µM",94.8%
same,"viability, T/C","second compound 1 µM, first compound 0.01 µM",84.9%
same,"viability, T/C",[19],17.8%
same,"viability, T/C",[20],7.27%
same,"viability, T/C",[21],10.2%
same,"viability, T/C",[22],9.53%
same,"viability, T/C","second compound 3.16 µM, first compound 0.00316 µM",82.5%
same,"viability, T/C","second compound 3.16 µM, first compound 0.01 µM",69.7%
same,"viability, T/C",[25],16.5%
same,"viability, T/C",[26],10.8%
same,"viability, T/C",[27],10.5%
same,"viability, T/C",[28],10.3%
same,"viability, T/C","second compound 10 µM, first compound 0.00316 µM",92.4%
same,"viability, T/C","second compound 10 µM, first compound 0.01 µM",71.2%
same,"viability, T/C",[31],14.2%
same,"viability, T/C",[32],11.5%
same,"viability, T/C",[33],10.9%
same,"viability, T/C",[34],9.84%
